Assay results taken from article PMC4658637 (2015).
Each block holds one compound with its values, some of them ahead of it.

What was measured:
[1] = test system: SPR-c-kit2 (DNA, G4) GGGCGGGCGCGAGGGAGGGG; test: SPR; conditions: 100 mM K+ (KCl); 50 mM Tris-HCl, pH 7.2, 25 °C; Langmuir kinetic fit
[2] = test system: KRAS (DNA, G4) AGGGCGGTGTGGGAAGAGGGAAGAGGGGGAGG; test: fluorescence titration; conditions: 100 mM K+ (KCl); 10 mM Tris-HCl, pH 7.2; strong light-up of 15 at 525 nm
[3] = test system: Pu22 (DNA, G4) TGAGGGTGGGTAGGGTGGGTAA; test: fluorescence titration; conditions: 100 mM K+ (KCl); 10 mM Tris-HCl, pH 7.2; strong light-up of 15 at 525 nm
[4] = test system: bcl-2 (DNA, G4) GGGCGGGCGCGGGAGGAAGGGGGCGGG; test: fluorescence titration; conditions: 100 mM K+ (KCl); 10 mM Tris-HCl, pH 7.2; strong light-up of 15 at 525 nm
[5] = test system: c-kit2 (DNA, G4) GGGCGGGCGCGAGGGAGGGG; test: fluorescence titration; conditions: 100 mM K+ (KCl); 10 mM Tris-HCl, pH 7.2; strong light-up of 15 at 525 nm
[6] = test system: HT-L2H (DNA, G4) TTGGGTTAGGGTTAGGGTTAGGGA; test: fluorescence titration; conditions: 100 mM K+ (KCl); 10 mM Tris-HCl, pH 7.2; much weaker light-up, up to 5 μM DNA
[7] = test system: htg22 (DNA, G4) AGGGTTAGGGTTAGGGTTAGGG; test: fluorescence titration; conditions: 100 mM K+ (KCl); 10 mM Tris-HCl, pH 7.2; much weaker light-up, up to 5 μM DNA
[8] = test system: HRAS (DNA, G4) TCGGGTTGCGGGCGCAGGGCACGGGCG; test: fluorescence titration; conditions: 100 mM K+ (KCl); 10 mM Tris-HCl, pH 7.2; much weaker light-up, up to 5 μM DNA
[9] = test system: TBA (DNA, G4) GGTTGGTGTGGTTGG; test: fluorescence titration; conditions: 100 mM K+ (KCl); 10 mM Tris-HCl, pH 7.2; much weaker light-up, up to 5 μM DNA
[10] = test system: c-kit3 (DNA, G4) GGCGAGGAGGGGCGTGGCCGGC; test: fluorescence titration; conditions: 100 mM K+ (KCl); 10 mM Tris-HCl, pH 7.2; much weaker light-up, up to 5 μM DNA
[11] = test system: c-kit2-Ap4 (DNA, G4, 2-aminopurine at 4 (replaces C)) GGGCGGGCGCGAGGGAGGGG; test: 2-aminopurine fluorescence titration; conditions: 100 mM K+ (KCl); 10 mM Tris-HCl, pH 7.2; 1 μM DNA, 0-10 μM compound
[12] = test system: c-kit2-Ap12 (DNA, G4, 2-aminopurine at 12) GGGCGGGCGCGAGGGAGGGG; test: 2-aminopurine fluorescence titration; conditions: 100 mM K+ (KCl); 10 mM Tris-HCl, pH 7.2; 1 μM DNA, 0-10 μM compound
[13] = test system: c-kit2-Ap16 (DNA, G4, 2-aminopurine at 16) GGGCGGGCGCGAGGGAGGGG; test: 2-aminopurine fluorescence titration; conditions: 100 mM K+ (KCl); 10 mM Tris-HCl, pH 7.2; 1 μM DNA, 0-10 μM compound
[14] = test system: HRAS-Ap7 (DNA, G4, 2-aminopurine at 7 (replaces T)) TCGGGTTGCGGGCGCAGGGCACGGGCG; test: 2-aminopurine fluorescence titration; conditions: 100 mM K+ (KCl); 10 mM Tris-HCl, pH 7.2; 1 μM DNA, 0-10 μM compound
[15] = test system: HRAS-Ap16 (DNA, G4, 2-aminopurine at 16) TCGGGTTGCGGGCGCAGGGCACGGGCG; test: 2-aminopurine fluorescence titration; conditions: 100 mM K+ (KCl); 10 mM Tris-HCl, pH 7.2; 1 μM DNA, 0-10 μM compound
[16] = test system: HRAS-Ap21 (DNA, G4, 2-aminopurine at 21) TCGGGTTGCGGGCGCAGGGCACGGGCG; test: 2-aminopurine fluorescence titration; conditions: 100 mM K+ (KCl); 10 mM Tris-HCl, pH 7.2; 1 μM DNA, 0-10 μM compound

KD [1]: 13.9 µM
SMILES: C#CCOc1ccc(-c2[nH]c(-c3cc4ccc(N(CC)CC)cc4oc3=O)nc2-c2ccc(OCCCN(CC)CC)cc2)cc1

KD [1]: 6.1 µM
binding [2]: yes
binding [3]: yes
binding [4]: yes
binding [5]: yes
binding [6]: weak
binding [7]: weak
binding [8]: weak
binding [9]: weak
binding [10]: weak
binding [11]: yes
binding [12]: yes
binding [13]: yes
binding [14]: weak
binding [15]: weak
binding [16]: weak
SMILES: CCN(CC)CCCOc1ccc(-c2nc(-c3cc4ccc(N(CC)CC)cc4oc3=O)[nH]c2-c2ccc(OCc3cn(CCC(=O)O)nn3)cc2)cc1

KD [1]: 4.3 µM
SMILES: CCN(CC)CCCOc1ccc(-c2nc(-c3cc4ccc(N(CC)CC)cc4oc3=O)[nH]c2-c2ccc(OCc3cn(CCCN(C)C)nn3)cc2)cc1

KD [1]: 2.0 µM
binding [11]: yes
binding [13]: yes
binding [14]: yes
binding [16]: yes
SMILES: CCN(CC)CCCOc1ccc(-c2nc(-c3cc4ccc(N(CC)CC)cc4oc3=O)[nH]c2-c2ccc(OCc3cn(CCCN4CCN(C)CC4)nn3)cc2)cc1

KD [1]: 3.1 µM
SMILES: CCN(CC)CCCOc1ccc(-c2nc(-c3cc4ccc(N(CC)CC)cc4oc3=O)[nH]c2-c2ccc(OCc3cn(CCCO)nn3)cc2)cc1

KD [1]: 2.7 µM
SMILES: CCN(CC)CCCOc1ccc(-c2nc(-c3cc4ccc(N(CC)CC)cc4oc3=O)[nH]c2-c2ccc(OCc3cn(CCN(C)C)nn3)cc2)cc1

KD [1]: 1.8 µM
SMILES: CCN(CC)CCCOc1ccc(-c2nc(-c3cc4ccc(N(CC)CC)cc4oc3=O)[nH]c2-c2ccc(OCc3cn(CCN4CCCCC4)nn3)cc2)cc1

KD [1]: 4.8 µM
SMILES: CCN(CC)CCCOc1ccc(-c2nc(-c3cc4ccc(N(CC)CC)cc4oc3=O)[nH]c2-c2ccc(OCc3cn(CCN4CCOCC4)nn3)cc2)cc1
